Source: US8541588B2, “Sulfonamide derivatives” (Pfizer Limited, priority 2009, dated 2013)
pIC50: −log10 of the molar value.

target: T1, Nav1.7 (or SCN9A) channel; HEK cells stably transfected with hSCN9A (Homo sapiens, UniProt Q15858); assay: Nav1.7 block, PatchXpress 7000 automated whole-cell voltage clamp, estimated IC50 (EIC50); assay type: cell-based; conditions: estimated IC50; hSCN9A HEK cells, PatchXpress platform; Examples 283-814
T1 construct: expressed in transfected cells
T1 sequence (Q15858 whole entry): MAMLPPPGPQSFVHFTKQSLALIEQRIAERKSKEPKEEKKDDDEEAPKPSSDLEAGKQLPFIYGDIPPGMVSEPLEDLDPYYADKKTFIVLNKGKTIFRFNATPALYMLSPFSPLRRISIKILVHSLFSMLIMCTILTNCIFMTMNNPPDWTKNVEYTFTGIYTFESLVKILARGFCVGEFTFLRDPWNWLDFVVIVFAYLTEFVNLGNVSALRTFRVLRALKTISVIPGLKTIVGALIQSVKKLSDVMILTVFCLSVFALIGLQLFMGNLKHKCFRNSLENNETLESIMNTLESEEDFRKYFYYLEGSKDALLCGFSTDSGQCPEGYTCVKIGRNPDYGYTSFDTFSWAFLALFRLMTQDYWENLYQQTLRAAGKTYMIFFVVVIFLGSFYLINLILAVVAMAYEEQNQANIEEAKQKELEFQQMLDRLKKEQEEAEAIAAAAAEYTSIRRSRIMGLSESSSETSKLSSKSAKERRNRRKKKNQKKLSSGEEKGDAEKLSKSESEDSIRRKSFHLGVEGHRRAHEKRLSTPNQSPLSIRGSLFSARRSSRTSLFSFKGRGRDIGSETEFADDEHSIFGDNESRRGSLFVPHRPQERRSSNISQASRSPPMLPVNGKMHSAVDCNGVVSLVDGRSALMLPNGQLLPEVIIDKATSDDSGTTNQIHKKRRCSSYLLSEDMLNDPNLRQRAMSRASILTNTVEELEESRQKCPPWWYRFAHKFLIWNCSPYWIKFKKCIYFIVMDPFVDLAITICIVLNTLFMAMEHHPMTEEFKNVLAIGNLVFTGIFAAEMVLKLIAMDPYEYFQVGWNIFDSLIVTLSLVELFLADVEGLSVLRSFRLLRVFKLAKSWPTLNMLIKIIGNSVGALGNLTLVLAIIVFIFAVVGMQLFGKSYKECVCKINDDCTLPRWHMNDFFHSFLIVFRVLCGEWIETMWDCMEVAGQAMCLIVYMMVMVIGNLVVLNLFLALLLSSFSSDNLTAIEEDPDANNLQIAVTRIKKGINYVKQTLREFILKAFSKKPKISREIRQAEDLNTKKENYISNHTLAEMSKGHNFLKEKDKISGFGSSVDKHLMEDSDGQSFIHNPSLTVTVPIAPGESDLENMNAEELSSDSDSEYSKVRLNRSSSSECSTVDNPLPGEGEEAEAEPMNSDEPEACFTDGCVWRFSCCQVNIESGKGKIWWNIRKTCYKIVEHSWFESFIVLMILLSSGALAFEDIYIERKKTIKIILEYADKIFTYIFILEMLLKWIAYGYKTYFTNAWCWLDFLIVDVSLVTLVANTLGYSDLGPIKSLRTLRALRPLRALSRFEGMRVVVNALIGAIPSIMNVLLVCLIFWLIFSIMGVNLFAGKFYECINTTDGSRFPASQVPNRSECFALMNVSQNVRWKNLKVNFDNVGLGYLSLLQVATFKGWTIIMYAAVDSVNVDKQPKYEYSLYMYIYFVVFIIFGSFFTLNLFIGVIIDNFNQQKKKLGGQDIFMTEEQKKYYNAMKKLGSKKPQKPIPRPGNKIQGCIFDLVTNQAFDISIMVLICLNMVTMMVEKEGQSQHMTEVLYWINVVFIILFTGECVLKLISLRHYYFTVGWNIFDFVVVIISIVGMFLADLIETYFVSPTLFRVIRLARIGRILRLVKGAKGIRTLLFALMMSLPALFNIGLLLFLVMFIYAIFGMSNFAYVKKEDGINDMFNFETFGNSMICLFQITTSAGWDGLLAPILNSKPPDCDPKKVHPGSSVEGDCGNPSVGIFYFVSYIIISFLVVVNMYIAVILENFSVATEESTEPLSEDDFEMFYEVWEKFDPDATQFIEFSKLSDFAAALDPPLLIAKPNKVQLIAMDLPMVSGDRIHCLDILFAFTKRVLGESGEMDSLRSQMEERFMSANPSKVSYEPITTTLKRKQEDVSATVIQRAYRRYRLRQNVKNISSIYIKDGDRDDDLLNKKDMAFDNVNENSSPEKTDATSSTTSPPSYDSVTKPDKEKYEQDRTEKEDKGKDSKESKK

Row | Compound | pIC50 | IC50 [µM]
1 | O=S(=O)(Nc1nncs1)c1cc(F)c(Oc2ccc(Cl)cc2-c2ccn[nH]2)cc1F [Example 302, 4-[4-chloro-2-(1H-pyrazol-5-yl)phenoxy]-2,5-difluoro-N-1,3,4-thiadiazol-2-ylbenzenesulfonamide] | 6.80 | 
2 | CC(C)(C)n1nc(C(F)(F)F)cc1-c1ccc(Oc2ccc(S(=O)(=O)Nc3nccs3)c(F)c2)cc1 [Example 303, 4-{4-[1-tert-Butyl-3-(trifluoromethyl)-1H-pyrazol-5-yl]phenoxy}-2-fluoro-N-1,3-thiazol-2-ylbenzenesulfonamide] | 6.37 | 
3 | Cn1nccc1-c1cc(Cl)ccc1Oc1cc(F)c(S(=O)(=O)Nc2nccs2)cc1Cl [Example 304, 5-chloro-4-[4-chloro-2-(1-methyl-1H-pyrazol-5-yl)phenoxy]-2-fluoro-N-1,3-thiazol-2-ylbenzenesulfonamide] | 7.60 | 
4 | CCn1nc(C(F)(F)F)cc1-c1ccc(Oc2cc(F)c(S(=O)(=O)Nc3nccs3)cc2Cl)cc1 [Example 305, 5-chloro-4-{4-[1-ethyl-3-(trifluoromethyl)-1H-pyrazol-5-yl]phenoxy}-2-fluoro-N-1,3-thiazol-2-ylbenzenesulfonamide] | 7.01 | 
5 | Cn1cnnc1-c1cc(Cl)ccc1Oc1ccc(S(=O)(=O)Nc2nccs2)cc1F [Example 306, 4-[4-chloro-2-(4-methyl-4H-1,2,4-triazol-3-yl)phenoxy]-3-fluoro-N-1,3-thiazol-2-ylbenzenesulfonamide] |  | >1
6 | Cn1nccc1-c1cc(C2CC2)ccc1Oc1ccc(S(=O)(=O)Nc2nccs2)cc1F [Example 309, 4-[4-Cyclopropyl-2-(1-methyl-1H-pyrazol-5-yl)phenoxy]-3-fluoro-N-1,3-thiazol-2-ylbenzenesulfonamide] | 7.60 | 
7 | CCn1cc(C(F)(F)F)nc1-c1ccc(Oc2ccc(S(=O)(=O)Nc3nccs3)cc2C#N)cc1 [Example 316, 3-cyano-4-{4-[1-ethyl-4-(trifluoromethyl)-1H-imidazol-2-yl]phenoxy}-N-1,3-thiazol-2-ylbenzenesulfonamide] | 6.13 | 
8 | Cc1coc(-c2ccc(Oc3ccc(S(=O)(=O)Nc4nccs4)cc3C#N)cc2)n1 [Example 317, 3-cyano-4-[4-(4-methyl-1,3-oxazol-2-yl)phenoxy]-N-1,3-thiazol-2-ylbenzenesulfonamide] | 5.66 | 
9 | N#Cc1cc(S(=O)(=O)Nc2nccs2)ccc1Oc1cccc(-n2cccn2)c1 [Example 319, 3-cyano-4-[3-(1H-pyrazol-1-yl)phenoxy]-N-1,3-thiazol-2-ylbenzenesulfonamide] | 5.60 | 
10 | Cn1cc(C(F)(F)F)nc1-c1ccc(Oc2ccc(S(=O)(=O)Nc3nccs3)cc2C#N)cc1 [Example 320, 3-cyano-4-{4-[1-methyl-4-(trifluoromethyl)-1H-imidazol-2-yl]phenoxy}-N-1,3-thiazol-2-ylbenzenesulfonamide] | 5.48 | 
11 | CCn1nc(-c2ccc(Oc3ccc(S(=O)(=O)Nc4nccs4)cc3C#N)c(F)c2)cc1C(F)(F)F [Example 324, 3-cyano-4-{4-[1-ethyl-5-(trifluoromethyl)-1H-pyrazol-3-yl]-2-fluorophenoxy}-N-1,3-thiazol-2-ylbenzenesulfonamide] |  | >1
12 | CCn1nc(C(F)(F)F)cc1-c1ccc(Oc2ccc(S(=O)(=O)Nc3nccs3)cc2C#N)cc1F [Example 327, 3-cyano-4-{4-[1-ethyl-3-(trifluoromethyl)-1H-pyrazol-5-yl]-3-fluorophenoxy}-N-1,3-thiazol-2-ylbenzenesulfonamide] | 6.43 | 
13 | CCn1nc(C(F)(F)F)cc1-c1ccc(Oc2ccc(S(=O)(=O)Nc3nccs3)cc2C#N)c(F)c1 [Example 328, 3-cyano-4-{4-[1-ethyl-3-(trifluoromethyl)-1H-pyrazol-5-yl]-2-fluorophenoxy}-N-1,3-thiazol-2-ylbenzenesulfonamide] | 7.09 | 
14 | Cn1nc(C(F)(F)F)cc1-c1ccc(Oc2ccc(S(=O)(=O)Nc3nccs3)cc2C#N)cc1F [Example 329, 3-cyano-4-{3-fluoro-4-[1-methyl-3-(trifluoromethyl)-1H-pyrazol-5-yl]phenoxy}-N-1,3-thiazol-2-ylbenzenesulfonamide] | 6.47 | 
15 | Cn1nc(C(F)(F)F)cc1-c1ccc(Oc2ccc(S(=O)(=O)Nc3nccs3)cc2C#N)c(F)c1 [Example 330, 3-cyano-4-{2-fluoro-4-[1-methyl-3-(trifluoromethyl)-1H-pyrazol-5-yl]phenoxy}-N-1,3-thiazol-2-ylbenzenesulfonamide] | 6.60 | 
16 | N#Cc1cc(S(=O)(=O)Nc2nccs2)ccc1Oc1cnn(-c2cccc(C(F)(F)F)c2)c1 [Example 334, 3-cyano-N-1,3-thiazol-2-yl-4-({1-[3-(trifluoromethyl)phenyl]-1H-pyrazol-4-yl}oxy)benzenesulfonamide] | 5.47 | 
17 | N#Cc1cc(S(=O)(=O)Nc2nccs2)ccc1Oc1ccc(Cl)c(Cn2cncn2)c1 [Example 336, 4-[4-chloro-3-(1H-1,2,4-triazol-1-ylmethyl)phenoxy]-3-cyano-N-1,3-thiazol-2-ylbenzenesulfonamide] | 5.66 | 
18 | CCn1nc(C(F)(F)F)cc1-c1ccc(Oc2ccc(S(=O)(=O)Nc3ccon3)cc2C#N)cc1 [Example 337, 3-cyano-4-{4-[1-ethyl-3-(trifluoromethyl)-1H-pyrazol-5-yl]phenoxy}-N-isoxazol-3-ylbenzenesulfonamide] | 5.60 | 

Continued, values first:

Row | pIC50 | IC50 [µM] | Compound
19 | 6.09 |  | Cn1ncc(F)c1-c1cc(Cl)ccc1Oc1ccc(S(=O)(=O)Nc2nccs2)cc1F [Example 307, 4-[4-Chloro-2-(4-fluoro-1-methyl-1H-pyrazol-5-yl)phenoxy]-3-fluoro-N-1,3-thiazol-2-ylbenzenesulfonamide]
20 | 6.01 |  | O=S(=O)(Nc1nccs1)c1ccc(Oc2ccc(Cl)cc2-c2ccn[nH]2)c(F)c1 [Example 308, 4-[4-Chloro-2-(1H-pyrazol-5-yl)phenoxy]-3-fluoro-N-1,3-thiazol-2-ylbenzenesulfonamide]
21 |  | >1 | CC(C)Oc1cc(-c2cc(F)ccc2Oc2ccc(S(=O)(=O)Nc3nccs3)cc2C#N)n(C)n1 [Example 310, 3-cyano-4-[4-fluoro-2-(3-isopropoxy-1-methyl-1H-pyrazol-5-yl)phenoxy]-N-1,3-thiazol-2-ylbenzenesulfonamide]
22 | 5.31 |  | CCn1nc(C(F)(F)F)cc1-c1ccc(Oc2ccc(S(=O)(=O)Nc3ncc(F)cc3F)cc2C#N)cc1 [Example 311, 3-cyano-N-(3,5-difluoropyridin-2-yl)-4-{4-[1-ethyl-3-(trifluoromethyl)-1H-pyrazol-5-yl]phenoxy}benzenesulfonamide]
23 | 7.77 |  | Cn1nccc1-c1cc(I)ccc1Oc1ccc(S(=O)(=O)Nc2nccs2)cc1C#N [Example 312, 3-cyano-4-[4-iodo-2-(1-methyl-1H-pyrazol-5-yl)phenoxy]-N-1,3-thiazol-2-ylbenzenesulfonamide]
24 | 6.14 |  | N#Cc1cc(S(=O)(=O)Nc2ccc(F)cn2)ccc1Oc1ccc(Cl)cc1-c1cn[nH]c1 [Example 314, 4-[4-chloro-2-(1H-pyrazol-4-yl)phenoxy]-3-cyano-N-(5-fluoropyridin-2-yl)benzenesulfonamide]
25 | 5.92 |  | N#Cc1cc(S(=O)(=O)Nc2ccc(F)cn2)ccc1Oc1ccc(C(F)(F)F)cc1-c1cn[nH]c1 [Example 315, 3-cyano-N-(5-fluoropyridin-2-yl)-4-[2-(1H-pyrazol-4-yl)-4-(trifluoromethyl)phenoxy]benzenesulfonamide]
26 | 5.89 |  | Cc1coc(-c2cc(Cl)ccc2Oc2ccc(S(=O)(=O)Nc3nccs3)cc2C#N)n1 [Example 318, 4-[4-chloro-2-(4-methyl-1,3-oxazol-2-yl)phenoxy]-3-cyano-N-1,3-thiazol-2-ylbenzenesulfonamide]
27 | 6.11 |  | N#Cc1cc(S(=O)(=O)Nc2nccs2)ccc1Oc1ccc(Cl)cc1-n1nccn1 [Example 321, 4-[4-chloro-2-(2H-1,2,3-triazol-2-yl)phenoxy]-3-cyano-N-1,3-thiazol-2-ylbenzenesulfonamide]
28 | 6.26 |  | N#Cc1cc(S(=O)(=O)Nc2nccs2)ccc1Oc1ccc(Cl)cc1-n1ccnn1 [Example 322, 4-[4-chloro-2-(1H-1,2,3-triazol-1-yl)phenoxy]-3-cyano-N-1,3-thiazol-2-ylbenzenesulfonamide]
29 |  | >0.30 | CCOCn1nncc1-c1cc(Cl)ccc1Oc1ccc(S(=O)(=O)Nc2nccs2)cc1C#N [Example 323, 4-{4-chloro-2-[1-(ethoxymethyl)-1H-1,2,3-triazol-5-yl]phenoxy}-3-cyano-N-1,3-thiazol-2-ylbenzenesulfonamide]
30 |  | >0.30 | Cn1cnc(-c2cc(Cl)ccc2Oc2ccc(S(=O)(=O)Nc3nccs3)cc2C#N)n1 [Example 325, 4-[4-chloro-2-(1-methyl-1H-1,2,4-triazol-3-yl)phenoxy]-3-cyano-N-1,3-thiazol-2-ylbenzenesulfonamide]
31 | 5.68 |  | Cn1ncnc1-c1cc(Cl)ccc1Oc1ccc(S(=O)(=O)Nc2nccs2)cc1C#N [Example 326, 4-[4-chloro-2-(1-methyl-1H-1,2,4-triazol-5-yl)phenoxy]-3-cyano-N-1,3-thiazol-2-ylbenzenesulfonamide]
32 | 5.70 |  | N#Cc1cc(S(=O)(=O)Nc2nccs2)ccc1Oc1cnn(Cc2ccc(Cl)cc2)c1 [Example 331, 4-{[1-(4-chlorobenzyl)-1H-pyrazol-4-yl]oxy}-3-cyano-N-1,3-thiazol-2-ylbenzenesulfonamide]
33 |  | >1 | N#Cc1cc(S(=O)(=O)Nc2nccs2)ccc1Oc1cnn(-c2ccc(Cl)cc2)c1 [Example 332, 4-{[1-(4-chlorophenyl)-1H-pyrazol-4-yl]oxy}-3-cyano-N-1,3-thiazol-2-ylbenzenesulfonamide]
34 |  | >1 | N#Cc1cc(S(=O)(=O)Nc2nccs2)ccc1Oc1cnn(-c2ccc(Cl)cc2Cl)c1 [Example 333, 3-cyano-4-{[1-(2,4-dichlorophenyl)-1H-pyrazol-4-yl]oxy}-N-1,3-thiazol-2-ylbenzenesulfonamide]
35 | 7.49 |  | Cn1nc(C(F)(F)F)cc1-c1ccc(Oc2ccc(S(=O)(=O)Nc3nccs3)cc2C#N)c(Cl)c1 [Example 335, 4-{2-chloro-4-[1-methyl-3-(trifluoromethyl)-1H-pyrazol-5-yl]phenoxy}-3-cyano-N-1,3-thiazol-2-ylbenzenesulfonamide]
